Literature values as cited in US11608532B2, “Precision medicine for treating and preventing suicidality” (Indiana University Research and Technology Corporation, priority 2017, dated 2023).
Where two headings read alike, the source gives them in different places.

Columns and labels:
[1] = test system: individual top biomarkers for suicidality; details: for HTR2A modulated by drug in opposite direction to suicide: DE/2
[2] = test system: top male bipolar biomarkers for suicidality
[3] = A. Top Universal Biomarkers, direction of change in suicidality (I)
[4] = C. Top Biomarkers in Females, direction of change in suicidality I
[5] = D. Top Biomarkers in Bipolar Disorder, direction of change in suicidality (I)
[6] = F. Top Biomarkers in Males with Bipolar Disorder, direction of change in suicidality (I)
[7] = biomarker HTR2A (5-hydroxytryptamine (serotonin) receptor 2A, G protein-coupled)
[8] = HTR2A, 244130_at, (I) in suicidality, male bipolars

Molecule: Cc1nc2n(c(=O)c1CCN1CCC(c3noc4cc(F)ccc34)CC1)CCCC2O (stereo not drawn) [Paliperidone]
- HTR2A modulated by drug in opposite direction to suicide [1, 3]: Paliperidone,
- HTR2A modulated by drug in opposite direction to suicide [1, 4]: Paliperidone,
- HTR2A modulated by drug in opposite direction to suicide [1, 5]: Paliperidone,
- HTR2A modulated by drug in opposite direction to suicide [1, 6]: Paliperidone,
- Step 6 Drugs that Modulate the Biomarker in Opposite Direction to Suicide [1, 7]: Paliperidone,
- Drugs that Modulate the Biomarker in Opposite Direction to Suicide [2, 8]: Paliperidone

Molecule: Cc1nc2n(c(=O)c1CCN1CCC(c3noc4cc(F)ccc34)CC1)CCCC2 [Risperidone]
- IFNG modulated by drug in opposite direction to suicide ([1]; A. Top Universal Biomarkers, direction of change in suicidality (D), AP/1): Risperidone,
- Step 6 Drugs that Modulate the Biomarker in Opposite Direction to Suicide [1, 7]: Risperidone
- Drugs that Modulate the Biomarker in Opposite Direction to Suicide [2, 8]: Risperidone

Molecule: CCCC(CCC)C(=O)O [Valproate]
- SLC4A4 modulated by drug in opposite direction to suicide ([1]; A. Top Universal Biomarkers, direction of change in suicidality (I), AP/1): Valproate
- HTR2A modulated by drug in opposite direction to suicide [1, 3]: Valproate
- SLC4A4 modulated by drug in opposite direction to suicide ([1]; B. Top Biomarkers in Males, direction of change in suicidality I, AP/2): Valproate
- TPR modulated by drug in opposite direction to suicide ([1]; C. Top Biomarkers in Females, direction of change in suicidality D, AP/4): Valproate
- HTR2A modulated by drug in opposite direction to suicide [1, 4]: Valproate
- HTR2A modulated by drug in opposite direction to suicide [1, 5]: Valproate
- TSPYL1 modulated by drug in opposite direction to suicide ([1]; E. Top Biomarkers in Depression, direction of change in suicidality (D), AP/1): Valproate
- GLIPR1 modulated by drug in opposite direction to suicide ([1]; E. Top Biomarkers in Depression, direction of change in suicidality (D), DE/1): Valproate
- HTR2A modulated by drug in opposite direction to suicide [1, 6]: Valproate
- TSPYL1 modulated by drug in opposite direction to suicide ([1]; G. Top Biomarkers in Males with Depression, direction of change in suicidality D, AP/1): Valproate
- Step 6 Drugs that Modulate the Biomarker in Opposite Direction to Suicide ([1]; biomarker CTTN (cortactin)): Valproate
- Step 6 Drugs that Modulate the Biomarker in Opposite Direction to Suicide [1, 7]: Valproate
- Step 6 Drugs that Modulate the Biomarker in Opposite Direction to Suicide ([1]; biomarker PKP4 (plakophilin 4)): Valproate
- Step 6 Drugs that Modulate the Biomarker in Opposite Direction to Suicide ([1]; biomarker PRKAR2B): Valproate
- Drugs that modulate the biomarker RBM3 ([1]; biomarker RBM3 (RNA binding motif (RNP1, RRM) protein 3), Table 20 CFE drug-evidence): Valproate
- Step 6 Drugs that Modulate the Biomarker in Opposite Direction to Suicide ([1]; biomarker SLC4A4): Valproate
- known drugs or classes of drugs that have an opposite effect to suicidality on the biomarker's direction of change (pharmacogenomics) (BioM50 panel biomarkers; biomarker BCL2 (B-cell CLL/lymphoma 2)): Valproate
- Matching to Treatments (Pharmacogenomics) Drugs that Modulate the Biomarker in opposite Direction to Suicide (BioM50 panel biomarkers; biomarker NR3C1, probeset 201866_s_at, (D) decreased in high suicidal ideation): Valproate
- Matching to Treatments (Pharmacogenomics) Drugs that Modulate the Biomarker in opposite Direction to Suicide (BioM50 panel biomarkers; biomarker PRKAR2B, probeset 203680_at, (D) decreased in high suicidal ideation): Valproate
- Drugs that Modulate the Biomarker in Opposite Direction to Suicide [2, 8]: Valproate

Molecule: CN1CCN2c3ncccc3Cc3ccccc3C2C1 (stereo not drawn) [mirtazapine]
- HTR2A modulated by drug in opposite direction to suicide [1, 3]: mirtazapine,
- HTR2A modulated by drug in opposite direction to suicide [1, 4]: mirtazapine,
- HTR2A modulated by drug in opposite direction to suicide [1, 5]: mirtazapine,
- HTR2A modulated by drug in opposite direction to suicide [1, 6]: mirtazapine,
- Drugs that Modulate the Biomarker in Opposite Direction to Suicide [2, 8]: mirtazapine

Molecule: omega-3 fatty acids [reference compound]
- Matching to Treatments (Pharmacogenomics) Drugs that Modulate the Biomarker in opposite Direction to Suicide (BioM50 panel biomarkers): Omega-3
- Drugs that Modulate the Biomarker in Opposite Direction to Suicide [2]: Omega-3
- Drugs that Modulate the Biomarker in Opposite Direction to Suicide (direction of change by drug) [2]: (I)

Molecule: CN1C(=O)CN=C(c2ccccc2)c2cc(Cl)ccc21 [Diazepam]
- Step 6 Drugs that Modulate the Biomarker in Opposite Direction to Suicide ([1]; biomarker AKAP13 (A kinase (PRKA) anchor protein 13)): Diazepam
- Step 6 Drugs that Modulate the Biomarker in Opposite Direction to Suicide ([1]; biomarker PGK1 (phosphoglycerate kinase 1)): Diazepam
- Step 6 Drugs that Modulate the Biomarker in Opposite Direction to Suicide ([1]; biomarker PSMB4): Diazepam
- Drugs that modulate the biomarker SPTBN1 ([1]; biomarker SPTBN1 (spectrin, beta, non-erythrocytic 1), Table 20 CFE drug-evidence): Diazepam
- Drugs that Modulate the Biomarker in Opposite Direction to Suicide ([2]; SPTBN1, 215918_s_at, (I) in suicidality, male bipolars): Diazepam
